Laboratory results from patent US8410107B2, “N-pyridin-3-yl or N-pyrazin-2-yl carboxamides” (Hoffmann-La Roche Inc., priority 2010, dated 2013).

Key:
human CB1 receptor = target: T1, human CB1 receptor (Homo sapiens, UniProt P21554); experiment: CB1 receptor affinity ([3H]-CP-55,940 displacement, HEK cell membranes); format: binding; settings: displacement of radioligand [3H]-CP-55,940
T1 construct: expressed in transfected cells; host or cells: human embryonic kidney (HEK) cells, Semliki Forest Virus system, membrane preparations
T1 sequence (P21554 whole entry): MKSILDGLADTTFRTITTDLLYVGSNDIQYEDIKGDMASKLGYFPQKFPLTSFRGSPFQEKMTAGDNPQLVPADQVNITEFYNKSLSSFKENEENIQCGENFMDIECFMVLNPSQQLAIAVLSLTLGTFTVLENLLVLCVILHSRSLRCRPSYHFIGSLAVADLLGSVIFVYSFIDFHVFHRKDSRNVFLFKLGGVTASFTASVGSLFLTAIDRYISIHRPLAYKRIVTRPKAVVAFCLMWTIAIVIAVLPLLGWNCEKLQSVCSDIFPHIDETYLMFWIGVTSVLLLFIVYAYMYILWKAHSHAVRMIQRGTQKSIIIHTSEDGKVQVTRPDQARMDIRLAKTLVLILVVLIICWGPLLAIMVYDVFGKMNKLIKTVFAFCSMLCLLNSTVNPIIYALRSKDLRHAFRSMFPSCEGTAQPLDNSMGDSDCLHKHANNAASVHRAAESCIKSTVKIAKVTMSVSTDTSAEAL
How it was run: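 HEK cell membranes transiently expressing human CB1 (Semliki Forest Virus) incubated with [3H]-CP-55,940 and compound at 10 μM. Bound and free ligand separated by glass-fibre filtration, then scintillation counting. Reported as % inhibition of radioligand binding.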

human CB2 receptor = target: T2, human CB2 receptor (Homo sapiens, UniProt P34972); experiment: CB2 receptor affinity ([3H]-CP-55,940 displacement, HEK cell membranes); format: binding; settings: displacement of radioligand [3H]-CP-55,940
T2 construct: expressed in transfected cells; host or cells: human embryonic kidney (HEK) cells, Semliki Forest Virus system, membrane preparations
T2 sequence (P34972 whole entry): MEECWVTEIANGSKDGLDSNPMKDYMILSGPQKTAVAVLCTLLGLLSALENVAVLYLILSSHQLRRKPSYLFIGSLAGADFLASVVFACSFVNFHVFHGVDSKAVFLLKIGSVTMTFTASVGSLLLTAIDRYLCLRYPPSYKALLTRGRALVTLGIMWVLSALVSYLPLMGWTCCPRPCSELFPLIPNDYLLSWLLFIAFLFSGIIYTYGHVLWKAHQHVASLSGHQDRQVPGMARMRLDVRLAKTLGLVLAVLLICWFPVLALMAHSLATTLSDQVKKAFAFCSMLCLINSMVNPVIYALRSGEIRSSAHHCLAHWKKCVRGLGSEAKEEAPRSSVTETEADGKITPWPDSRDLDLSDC
How it was run: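 Membranes from HEK cells transiently expressing human CB2 via Semliki Forest Virus, incubated with [3H]-CP-55,940 ± compound; bound ligand separated by glass-fiber filtration and counted by scintillation. Reported as % inhibition of radioligand binding at 10 μM compound.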

ABCA1 protein = experiment: Detection of upregulation of ABCA1 protein in cells (ApoA-I binding, high content image analysis); format: cell-based; settings: THP-1 macrophage cells; for EC50: ABCA1 protein increasing efficacy; for % increase of ABCA1 at 3 μM: 24 hrs with compound
How it was run: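 THP-1 cells differentiated with 100 nM PMA for 68 hrs, loaded with 25 μg/ml acetylated LDL for 24 hours, then exposed to compound (0.5% DMSO) for 24 hrs. Surface ABCA1 measured by binding of AlexaFluor 647-labeled human ApoA-I (20 nM, 2 h, 37 °C) with confocal high-content imaging; EC50 from one-site dose-response fit.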

SMILES | inhibition at 10 µM (human CB1 receptor) [%] | inhibition at 10 µM (human CB2 receptor) [%] | EC50 (ABCA1 protein) [µM] | % increase of ABCA1 at 3 μM (ABCA1 protein) [% @ 3 μM]
Cc1cc(-c2cc(NC(=O)c3cccnn3)cnc2OCC(F)(F)F)ccc1Cl [Example 62, N-(5-(4-chloro-3-methylphenyl)-6-(2,2,2-trifluoroethoxy)pyridin-3-yl)pyridazine-3-carboxamide] | -4 | 4 | 2.39 | 
O=C(Nc1cnc(OCC(F)(F)F)c(-c2ccc(Cl)c(F)c2)c1)c1cccnn1 [Example 63, N-(5-(4-chloro-3-fluorophenyl)-6-(2,2,2-trifluoroethoxy)pyridin-3-yl)pyridazine-3-carboxamide] | 5 | -1 | 0.68 | 
O=C(Nc1cnc(OCC(F)(F)F)c(-c2ccc(Cl)cc2F)c1)c1cccnn1 [Example 64, N-(5-(4-chloro-2-fluorophenyl)-6-(2,2,2-trifluoroethoxy)pyridin-3-yl)pyridazine-3-carboxamide] | 9 | 2 | 1.08 | 
CCc1ccc(-c2cc(NC(=O)c3cccnn3)cnc2OCC(F)(F)F)cc1 [Example 65, N-(5-(4-ethylphenyl)-6-(2,2,2-trifluoroethoxy)pyridin-3-yl)pyridazine-3-carboxamide] | 19 | 5 | 0.27 | 
O=C(Nc1cnc(OCC(F)(F)F)c(-c2ccc(Cl)cc2)c1)c1ccco1 [Example 66, N-(5-(4-chlorophenyl)-6-(2,2,2-trifluoroethoxy)pyridin-3-yl)furan-2-carboxamide] | 30 | 5 |  | >45
O=C(Nc1cnc(OCC(F)(F)F)c(-c2ccc(Cl)cc2)c1)c1ccoc1 [Example 67, N-(5-(4-chlorophenyl)-6-(2,2,2-trifluoroethoxy)pyridin-3-yl)furan-3-carboxamide] | 33 | 9 |  | >45
Cc1ccc(C(=O)Nc2cnc(OCC(F)(F)F)c(-c3ccc(Cl)cc3)c2)o1 [Example 68, N-(5-(4-chlorophenyl)-6-(2,2,2-trifluoroethoxy)pyridin-3-yl)-5-methylfuran-2-carboxamide] | 26 | 4 |  | >45
COCCOc1ncc(NC(=O)c2ccccc2)cc1-c1ccc(Cl)c(C)c1 [Example 69, N-(5-(4-chloro-3-methylphenyl)-6-(2-methoxyethoxy)pyridin-3-yl)benzamide] | 35 | 18 |  | >45
CN1CCOc2cc(C(=O)Nc3cnc(OCC(F)(F)F)c(-c4ccc(Cl)cc4)c3)cnc21 [Example 72, N-(5-(4-chlorophenyl)-6-(2,2,2-trifluoroethoxy)pyridin-3-yl)-4-methyl-3,4-dihydro-2H-pyrido[3,2-b][1,4]oxazine-7-carboxamide] | 25 | -7 | 0.78 | 
Nc1ccc(-c2cc(NC(=O)c3cncc(I)c3)cnc2OCC(F)(F)F)cc1Cl [Example 73, N-(5-(4-amino-3-chlorophenyl)-6-(2,2,2-trifluoroethoxy)pyridin-3-yl)-5-iodonicotinamide] | 13 | 22 |  | >45
O=C(Nc1cnc(OCC(F)(F)F)c(-c2ccccc2)c1)c1cccnc1 [Example 74, N-(5-phenyl-6-(2,2,2-trifluoroethoxy)pyridin-3-yl)nicotinamide] | 17 | -7 |  | >45
O=C(Nc1cnc(OCC(F)(F)F)c(-c2ccc(F)cc2)c1)c1cccnc1 [Example 75, N-(5-(4-fluorophenyl)-6-(2,2,2-trifluoroethoxy)pyridin-3-yl)nicotinamide] | 31 | 5 |  | >45
O=C(Nc1cnc(OCC(F)(F)F)c(-c2cccc(Cl)c2)c1)c1cccnc1 [Example 76, N-(5-(3-chlorophenyl)-6-(2,2,2-trifluoroethoxy)pyridin-3-yl)nicotinamide] | 1 | 5 |  | >45
COc1cncc(C(=O)Nc2cnc(OCC(F)(F)F)c(-c3ccc(Cl)cc3)c2)c1 [Example 77, N-(5-(4-chlorophenyl)-6-(2,2,2-trifluoroethoxy)pyridin-3-yl)-5-methoxynicotinamide] | 33 | 16 | 0.72 | 
O=C(Nc1cnc(OC2CCC2)c(-c2ccc(Cl)cc2)c1)c1cnccn1 [Example 78, N-(5-(4-chlorophenyl)-6-cyclobutoxypyridin-3-yl)pyrazine-2-carboxamide] | 25 | 26 |  | >45
O=C(Nc1cnc(OC2CCC2)c(-c2ccc(Cl)cc2)c1)c1cccnc1 [Example 79, N-(5-(4-chlorophenyl)-6-cyclobutoxypyridin-3-yl)nicotinamide] | 29 | 13 |  | >45
Cc1cc(-c2cc(NC(=O)c3cnc4c(c3)OCCN4C)cnc2OCC(F)(F)F)ccc1Cl [Example 80, N-(5-(4-chloro-3-methylphenyl)-6-(2,2,2-trifluoroethoxy)pyridin-3-yl)-4-methyl-3,4-dihydro-2H-pyrido[3,2-b][1,4]oxazine-7-carboxamide] | 16 | 14 |  | >45
CN1CCOc2cc(C(=O)Nc3cnc(OCC(F)(F)F)c(-c4ccc(Cl)c(F)c4)c3)cnc21 [Example 81, N-(5-(4-chloro-3-fluorophenyl)-6-(2,2,2-trifluoroethoxy)pyridin-3-yl)-4-methyl-3,4-dihydro-2H-pyrido[3,2-b][1,4]oxazine-7-carboxamide] | 21 | 5 | 2.56 | 
Cc1ocnc1C(=O)Nc1cnc(OC2CCC2)c(-c2ccc(Cl)cc2)c1 [Example 82, 5-Methyl-oxazole-4-carboxylic acid[5-(4-chloro-phenyl)-6-cyclobutoxy-pyridin-3-yl]-amide] | 29 | 37 |  | >45
Cc1cncc(C(=O)Nc2cnc(OC3CCC3)c(-c3ccc(Cl)cc3)c2)c1 [Example 83, N-[5-(4-Chloro-phenyl)-6-cyclobutoxy-pyridin-3-yl]-5-methyl-nicotinamide] | 27 | -5 |  | >45
CNC(=O)c1ccc(C(=O)Nc2cnc(OCC(F)(F)F)c(-c3ccc(Cl)cc3)c2)cn1 [Example 84, N5-(5-(4-chlorophenyl)-6-(2,2,2-trifluoroethoxy)pyridin-3-yl)-N2-methylpyridine-2,5-dicarboxamide] | 23 | 3 |  | >45
O=C(Nc1cnc(OCC(F)(F)F)c(-c2ccc(Cl)cc2)c1)c1cncc(Br)c1 [Example 85, 5-bromo-N-(5-(4-chlorophenyl)-6-(2,2,2-trifluoroethoxy)pyridin-3-yl)nicotinamide] | 38 | 5 |  | >45
COC(C)C(=O)Nc1cnc(OCC(F)(F)F)c(-c2ccc(Cl)cc2)c1 (stereo not drawn) [Example 86, N-(5-(4-chlorophenyl)-6-(2,2,2-trifluoroethoxy)pyridin-3-yl)-2-methoxy-propanamide] | 48 | 5 |  | >45
CNC(=O)c1cncc(C(=O)Nc2cnc(OCC(F)(F)F)c(-c3ccc(Cl)cc3)c2)c1 [Example 87, N3-(5-(4-chlorophenyl)-6-(2,2,2-trifluoroethoxy)pyridin-3-yl)-N5-methylpyridine-3,5-dicarboxamide] | 19 | -15 |  | >45
CO[C@H](C)C(=O)Nc1cnc(OCC(F)(F)F)c(-c2ccc(Cl)cc2)c1 [Example 88, (+)-N-(5-(4-chlorophenyl)-6-(2,2,2-trifluoroethoxy)pyridin-3-yl)-2-methoxypropanamide] | 41 | 16 |  | >45
CO/N=C(\C)C(=O)Nc1cnc(OCC(F)(F)F)c(-c2ccc(Cl)cc2)c1 [Example 89, (E)-N-(5-(4-chlorophenyl)-6-(2,2,2-trifluoroethoxy)pyridin-3-yl)-2-(methoxyimino)propanamide] | 35 | 5 | 3.31 | 
